Earlier results as cited in US10780114B2, “Therapeutic agent for skin wound or rough skin” (JFE MINERAL COMPANY, LTD., priority 2015, dated 2020).

Experiments:
skin = conditions: in vivo

- Zinc ion level leading to increased inflammatory cell infiltration in skin and remarkably delayed reepithelization (skin): not less than 15 mmol/L
Structure (SMILES): [Zn+2] [zinc ions]
- Zinc ion concentration that does not exhibit toxicity to a fibroblast (fibroblast): not more than 500 μmol/L
